Assay results reported in publication PMC10706242, “Inhibitors of 3-Hydroxy-3-methylglutaryl Coenzyme A Reductase Decrease the Growth, Ergosterol Synthesis and Generation of petite Mutants in Candida glabrata and Candida albicans” (International Journal of Molecular Sciences, 2023).

Legend:
[1] = molecular target: T1, rec-CgHMGR (CgHMGR) (Nakaseomyces glabratus, UniProt Q6FKH6); assay: NADPH oxidation at […] nm; format: biochemical; details: HMG-CoA, 50 mM Tris-HCl pH 8.0, 37 °C
T1 construct: gene HMG1; transmembrane region removed), pPICZB, His-tagged, expressed in Pichia pastoris X-33, Ni-NTA purified, approx. 48 kDa by SDS-PAGE
T1 sequence (Q6FKH6 619-1056 limits assumed): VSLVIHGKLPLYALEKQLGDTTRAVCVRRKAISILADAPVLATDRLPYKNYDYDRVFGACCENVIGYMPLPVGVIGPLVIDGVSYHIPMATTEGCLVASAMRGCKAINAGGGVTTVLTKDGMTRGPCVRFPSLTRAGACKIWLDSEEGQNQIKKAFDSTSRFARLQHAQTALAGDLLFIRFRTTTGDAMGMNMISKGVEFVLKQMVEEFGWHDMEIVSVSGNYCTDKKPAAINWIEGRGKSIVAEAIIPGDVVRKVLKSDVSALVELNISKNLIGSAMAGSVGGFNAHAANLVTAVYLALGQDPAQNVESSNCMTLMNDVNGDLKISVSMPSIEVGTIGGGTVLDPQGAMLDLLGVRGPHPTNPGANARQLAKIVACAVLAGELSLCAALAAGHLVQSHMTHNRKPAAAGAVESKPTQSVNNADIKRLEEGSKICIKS

[2] = molecular target: T1, rec-CgHMGR (CgHMGR); assay: NADPH oxidation at […] nm; format: biochemical; details: read-out: Inhibition (% of Relative Activity) *

NC(=O)C1=CN([C@@H]2O[C@H](COP(=O)(O)OP(=O)(O)OC[C@H]3O[C@@H](n4cnc5c(N)ncnc54)[C@H](OP(=O)(O)O)[C@@H]3O)[C@@H](O)[C@H]2O)C=CC1 [NADPH]
NADPH oxidation at 340 nm [1]: converted into its oxidized form by the catalytic subunit of HMGR in the presence of HMG-CoA

CCCc1cc(OC)c(OCC(=O)OC)cc1O [1b]
inhibition at 100 µM [2]: 89 ± 1.24%

CCCc1cc(OC)c(OCC(=O)OC)cc1[N+](=O)[O-] [1a]
inhibition at 100 µM [2]: 73 ± 1.52%

CCc1ccc(OCC(=O)OC)c([N+](=O)[O-])c1 [6g]
inhibition at 100 µM [2]: 86 ± 3.21%

CCCc1cc(OC)c(OC)cc1O [7a]
inhibition at 100 µM [2]: 66 ± 2.08%
